Read-outs that look alike come from different tables or passages of the source.
Experiments:
LogP = type: physicochemical
Source text: The term “Log P” means the ratio of the concentrations of a substance in two heterogenous phases in equilibrium with each other. Typically, the organic solvent in n-octanol, but n-hexane; toluene; chlorobenzene; dichloromethane; methyl tert-butyl ether; isopropyl acetate; benzyl alcohol; cyclohexanol; or n-butanol may be used as well.

Human SAD PK = type: in vivo; settings: plasma, oral; for AUC(0-t): human; for AUC(0-t) / Cmax / half-life: mean ± SD; for Cmax / half-life / Tmax: n = 6; for Tmax: median
Procedure: Preferred lipid-based formulation based on U28 provided adequate exposure in human. The optimal PK exposure to engage integrins and improve adjuvant activity is systemic plasma exposure of AUC0-t between about 50 ng/mL/hr and about 100 ng/mL/hr.

CYP2C19 = CYP2C19 (Homo sapiens, UniProt P33261); assay: Cytochrome P450 Metabolism; type: in vitro ADME
Solubility of 7HP349 = type: physicochemical
CYP3A4 = CYP3A4 (Homo sapiens, UniProt P08684); assay: Cytochrome P450 Metabolism; type: in vitro ADME
Sequence of CYP3A4 (P08684 whole entry): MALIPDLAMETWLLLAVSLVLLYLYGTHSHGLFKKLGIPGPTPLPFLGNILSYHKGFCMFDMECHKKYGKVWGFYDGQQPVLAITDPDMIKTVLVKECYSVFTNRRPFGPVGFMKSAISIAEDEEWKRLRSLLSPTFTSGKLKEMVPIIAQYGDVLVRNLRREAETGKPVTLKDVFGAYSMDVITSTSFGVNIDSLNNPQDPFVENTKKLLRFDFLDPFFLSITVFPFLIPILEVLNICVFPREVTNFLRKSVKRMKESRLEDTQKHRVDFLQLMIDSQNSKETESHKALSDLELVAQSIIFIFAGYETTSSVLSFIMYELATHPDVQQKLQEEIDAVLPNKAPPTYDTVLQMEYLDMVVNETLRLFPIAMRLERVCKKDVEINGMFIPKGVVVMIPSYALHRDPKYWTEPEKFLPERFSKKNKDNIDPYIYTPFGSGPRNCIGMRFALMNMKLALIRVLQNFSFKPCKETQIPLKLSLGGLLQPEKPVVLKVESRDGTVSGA

Sequence of CYP2C19 (P33261 whole entry): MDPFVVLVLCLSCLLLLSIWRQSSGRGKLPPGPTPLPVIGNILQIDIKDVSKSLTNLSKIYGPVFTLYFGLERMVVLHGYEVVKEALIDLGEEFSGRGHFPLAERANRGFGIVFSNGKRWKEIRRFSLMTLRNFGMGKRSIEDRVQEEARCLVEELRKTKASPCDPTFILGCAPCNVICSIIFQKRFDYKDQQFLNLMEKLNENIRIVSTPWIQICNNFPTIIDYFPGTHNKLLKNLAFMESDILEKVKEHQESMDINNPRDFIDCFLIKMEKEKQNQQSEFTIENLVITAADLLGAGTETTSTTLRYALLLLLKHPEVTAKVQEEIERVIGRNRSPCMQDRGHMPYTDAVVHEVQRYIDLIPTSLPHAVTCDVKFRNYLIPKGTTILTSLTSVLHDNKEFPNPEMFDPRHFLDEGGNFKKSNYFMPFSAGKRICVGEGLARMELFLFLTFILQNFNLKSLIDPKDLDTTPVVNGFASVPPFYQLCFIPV

O=C(OCCOCCOCCOC(=O)N(Cc1cccs1)Cc1cccs1)N(Cc1cccs1)Cc1cccs1 [Form 7HP349, 3-oxo-1-(2-thienyl)-2-(2-thienylmethyl)-4,7,10-trioxa-2-azadodecan-12-yl bis(2-thienylmethyl)carbamate]
logP (LogP): 6.22
AUC(0-t) (Human SAD PK; 50 mg, cohort 1, 50 mg, n = 6, read-out: AUC0-10 h): 12.5 ng·h/mL
AUC(0-t) (Human SAD PK; 50 mg, cohort 1, 50 mg, n = 6, read-out: AUClast): 31.8 ± 21.5 ng·h/mL
AUC(0-t) (Human SAD PK; 100 mg, cohort 2, 100 mg, n = 6, read-out: AUC0-10 h): 115 ± 57.5 ng·h/mL
AUC(0-t) (Human SAD PK; 100 mg, cohort 2, 100 mg, n = 6, read-out: AUClast): 165 ng·h/mL
AUC(0-t) (Human SAD PK; 200 mg, cohort 3, 200 mg, n = 6, read-out: AUC0-10 h): 571 ± 195 ng·h/mL
AUC(0-t) (Human SAD PK; 200 mg, cohort 3, 200 mg, n = 6, read-out: AUClast): 755 ± 241 ng·h/mL
AUC(0-t) (Human SAD PK; 300 mg, cohort 4, 300 mg, n = 6, read-out: AUC0-10 h): 938 ± 282 ng·h/mL
AUC(0-t) (Human SAD PK; 300 mg, cohort 4, 300 mg, n = 6, read-out: AUClast): 1350 ± 316 ng·h/mL
Cmax (Human SAD PK; cohort 1, 50 mg): 10.2 ± 8.17 ng/mL
half-life (Human SAD PK; cohort 1, 50 mg): 8.9 h
Tmax (Human SAD PK; cohort 1, 50 mg): 2.5 h
Cmax (Human SAD PK; cohort 2, 100 mg): 36.1 ± 16.4 ng/mL
half-life (Human SAD PK; cohort 2, 100 mg): 20.6 ± 15 h
Tmax (Human SAD PK; cohort 2, 100 mg): 2 h
Cmax (Human SAD PK; cohort 3, 200 mg): 166 ± 61.8 ng/mL
half-life (Human SAD PK; cohort 3, 200 mg): 34.6 ± 20.7 h
Tmax (Human SAD PK; cohort 3, 200 mg): 2 h
Cmax (Human SAD PK; cohort 4, 300 mg): 321 ng/mL
half-life (Human SAD PK; cohort 4, 300 mg): 29.7 ± 15.4 h
Tmax (Human SAD PK; cohort 4, 300 mg): 2 h
Cytochrome P450 Metabolism (CYP2C19): Substrate for CYP3A4 and CYP2C19
Solubility (Solubility of 7HP349; aqueous buffers and simulated gastrointestinal fluids, aqueous buffer, hydrochloric acid-potassium chloride buffer (pH 2), citrate buffer (pH 4), sodium phosphate buffer (pH 7.4), SGF, FaSSIF and FeSSIF, read-out: Solubility): < 0.01 µM
Solubility (Solubility of 7HP349; common organic solvents such as methanol, ethanol, ethyl acetate, acetone, DMSO, DMF, DCM, etc.): Highly soluble in common organic solvents such
Solubility (Solubility of 7HP349; in water): Insoluble in water
Solubility (Solubility of 7HP349; non-polar organic solvents such as hexane, heptane, etc.): Practically insoluble in non-polar organic solvents
Solubility (Solubility of 7HP349; oil or lipid, vegetable oils such as corn, soybean, canola oils typically containing >C16 fatty acids, read-out: Solubility): ≤ 50 mg/mL
Cytochrome P450 Metabolism (CYP3A4): Substrate for CYP3A4 and CYP2C19

O=C(OCCOCCOC(=O)N(Cc1cccs1)Cc1cccs1)N(Cc1cccs1)Cc1cccs1 [Form 7HP577, 3-oxo-1-(2-thienyl)-2-(2-thienylmethyl)-4,7-dioxa-2-azanonan-9-yl bis(2-thienylmethyl)carbamate]
logP (LogP): 6.58

Reference: US20230372253A1, “NOVEL LIPID-BASED SMALL MOLECULE INTEGRIN RECEPTOR-LIGAND AGONIST ADJUVANTS CARRIER COMPOSITIONS, INTEGRIN AGONIST ADJUVANT PHARMACEUTICAL COMPOSITIONS THEREFROM, AND METHODS FOR MAKING AND USING SAME” (7 Hills Pharma LLC, priority 2022, published 2023)
